Assay results published in patent US11414379B2, “SPAK kinase inhibitors as neuroprotective agents” (United States Government as represented by the Department …, priority 2018, dated 2022).
“Also recorded” adds a separate entry of the source.

Legend:
[1] = system: mouse model of ischemic stroke; experiment: Infarct volume and hemispheric swelling after transient MCAO; type: in vivo; conditions: 2.5 mg/kg; 24 hr reperfusion
Source text: Under an operating microscope, the left common carotid artery was exposed through a midline incision. […] The ECA was dissected further distally and permanently ligated. The internal carotid artery (ICA) was isolated and carefully separated from the adjacent vagus nerve. A 12 mm length of silicon-coated nylon filament (size 6-0, native diameter 0.11 mm; diameter with coating 0.21+/−0.02 mm; coating length 5-6 mm; Doccol Corporation, Sharon, Mass.) was introduced into the ECA lumen through a puncture. The silk suture around the ECA stump was tightened around the intraluminal nylon suture to prevent bleeding. The nylon suture was then gently advanced from the ECA to the ICA lumen until mild resistance was felt (˜9 mm). For reperfusion, the suture was withdrawn 50 min after MCAO to restore blood flow. Body temperature was maintained for the duration of the experiment between 36.5° C.-37° C. with a small animal heating pad (Kent Scientific).
At 24 hours reperfusion, mice were anesthetized with 5% isoflurane and then decapitated. Coronal brain tissue slices (2 mm) were stained for 20 minutes at 37° C. with 1% 2,3,5-triphenyltetrazolium chloride monohydrate (TTC; Sigma, St Louis, Mo.) in PBS solution. […] The extent of hemispheric swelling was calculated using the following equation: swelling (% contralateral side)=[(volume of ipsilateral hemisphere−volume of contralateral hemisphere)/volume of contralateral hemisphere]×100 (Bhuiyan et al. (2017) Journal of cerebral blood flow and metabolism: official journal of the International Society of Cerebral Blood Flow and Metabolism 37: 2780-2794).
Referring to FIG. 11A, an experimental design of ischemic stroke study is shown. Vehicle or ZT-1a is administered at 3 hrs and 8 hrs post-MCAO.
Referring to FIG. 11B, representative images and quantification of infarct volume and hemispheric swelling in TTC-stained coronal sections of mouse brains 24 hrs post-MCAO are shown. Vehicle (DMSO, 2 ml/kg) or ZT-1a (2.5 or 5.0 mg/kg) were administered with an initial half dose at 3 hrs and the second half dose at 8 hr reperfusion via intra-peritoneal injection (i.p.). Data are mean±SD, n=6-12 per group (male). * p<0.05.

mice = experiment: Adverse effects of WNK463 administered to mice; type: in vivo, mouse; conditions: 2.5 mg/kg dose
all four WNK kinases = conditions: cited from earlier work
[2] = system: normotensive and hypertensive rodent models; conditions: oral administration of 1-10 mg/kg; cited from earlier work

## CC(C)(C)NC(=O)c1cncn1C1CCN(c2ccc(-c3nnc(C(F)(F)F)o3)cn2)CC1 [WNK463]
[1]
  effect on infarct volume and hemispheric swelling: reduced neither infarct volume nor hemispheric swelling; also recorded: no neuroprotective effects
mice
  adverse effects: ataxia and breathing difficulties
All four WNK kinases
  inhibition of WNK kinases in vitro: nanomolar range
[2]
  effect on blood pressure: reduced blood pressure
